One data set has as its system HCT-116. Briefly: Antiproliferative activity against human HCT116 cells incubated for 48 hrs by SRB assay. In kind it is functional. The following applies: HCT-116, 48 h.
The test system of a further data set is ASPC1. Briefly: Antiproliferative activity against human AsPC1 cells incubated for 48 hrs by SRB assay. In kind it is functional. The conditions noted are these: ASPC1, 48 h. (The SRB assay estimates cell density from bound dye.)
Another data set concerns REH. The data set is described as follows: Antiproliferative activity against human REH cells incubated for 48 hrs by SRB assay. In kind it is functional.
The subject of another data set is Ramos. The data set is described as follows: Antiproliferative activity against human Ramos cells incubated for 48 hrs by SRB assay. Format: functional.
Data set [1] can be described thus: Antiproliferative activity against human 33HJ-JA1 cells incubated for 48 hrs by SRB assay. In kind it is functional.
The test system of the next data set is NCI-H460. Briefly: Antiproliferative activity against human NCI-H460 cells incubated for 48 hrs by SRB assay. Format: functional. The conditions noted are these: NCI-H460, 48 h.
Another data set deals with Mus musculus. Briefly: Toxicity in human RPMI8226 cells xenografted SCID nude mouse assessed as induction of adverse events at 50 mg/kg, po dosed daily for 45 days. The conditions noted are these: in vivo, 1080 h. In kind it is organism-based.
For data set [2], the species on record is Homo sapiens. Briefly: Inhibition of UBE1/UbcH3/SCFFbw7/Cyclin E1 (unknown origin) assessed as protein activity at […] by electrochemiluminescence based ubiquitin profiler panel assay. On the set-up: scale not given: the % may be the effect or the level left.
The species named for data set [3] is Homo sapiens. The data set is described as follows: Inhibition of UBE1/UbcH3/SCFbTrCP1/IkBa (unknown origin) assessed as protein activity at […] by electrochemiluminescence based ubiquitin profiler panel assay. On the set-up: scale not given: the % may be the effect or the level left.
The species named for data set [4] is Homo sapiens. Briefly: Inhibition of UBE1/UbcH4/SCFbTrCP1/IkBa (unknown origin) assessed as protein activity at […] by electrochemiluminescence based ubiquitin profiler panel assay. Details: scale not given: the % may be the effect or the level left.
Data set [5] is filed under the species Homo sapiens. The data set is described as follows: Inhibition of UBE1/UbcH4/SCFbTrCP1/b-catenin (unknown origin) assessed as protein activity at […] by electrochemiluminescence based ubiquitin profiler panel assay. Details: scale not given: the % may be the effect or the level left.
The species entered for data set [6] is Homo sapiens. The data set is described as follows: Inhibition of UBE1/UbcH5c/MDM2/CK1d/p53 (unknown origin) assessed as protein activity at […] by electrochemiluminescence based ubiquitin profiler panel assay. On the set-up: scale not given: the % may be the effect or the level left.
Data set [7] is filed under the species Homo sapiens. Briefly: Inhibition of UBE1/UbcH4/MDM2/MDM2(Auto) (unknown origin) assessed as protein activity at […] by electrochemiluminescence based ubiquitin profiler panel assay. Details: scale not given: the % may be the effect or the level left.
Data set [8] is filed under the species Homo sapiens. The data set is described as follows: Inhibition of UBE1/UbcH5a/VHL/HIF-1a (unknown origin) assessed as protein activity at […] by electrochemiluminescence based ubiquitin profiler panel assay. Details: scale not given: the % may be the effect or the level left.
The species named for data set [9] is Homo sapiens. The data set is described as follows: Inhibition of UBE1/UbcH7/Parkin/p38/JTV-1 (unknown origin) assessed as protein activity at […] by electrochemiluminescence based ubiquitin profiler panel assay. On the set-up: scale not given: the % may be the effect or the level left.
For data set [10], the species on record is Homo sapiens. Briefly: Inhibition of UBE1/UbcH13/Uev1A/CHIP/CHIP(Auto) (unknown origin) assessed as protein activity at […] by electrochemiluminescence based ubiquitin profiler panel assay. Details: scale not given: the % may be the effect or the level left.
The species named for data set [11] is Homo sapiens. The data set is described as follows: Inhibition of UBE1/UbcH6/Parkin/Parkin(Auto) (unknown origin) assessed as protein activity at […] by electrochemiluminescence based ubiquitin profiler panel assay. On the set-up: scale not given: the % may be the effect or the level left.
Another data set deals with A-431. Briefly: Antiproliferative activity against human A431 cells incubated for 48 hrs by SRB assay. The conditions noted are these: A-431, 48 h. Format: functional.
A further data set concerns ACHN. The data set is described as follows: Antiproliferative activity against human ACHN cells incubated for 48 hrs by SRB assay. Format: functional.
A further data set relates to MOLT-4. Briefly: Antiproliferative activity against human MOLT4 cells incubated for 48 hrs by SRB assay. In kind it is functional. The conditions noted are these: MOLT-4, 48 h.
For another data set, the system named is HL-60. The data set is described as follows: Antiproliferative activity against human HL60 cells incubated for 48 hrs by SRB assay. In kind it is functional. The following applies: HL-60, 48 h.

The structures appear in SMILES notation.

Broadly, the GI50 is the concentration that inhibits growth by half.

As to `O=C(Nc1ccncc1)c1ccc(CNC2=C(Cl)C(=O)c3ccccc3C2=O)cc1`, the GI50 came to 4.3 µM with HCT-116; 4.6 µM in the data set with ASPC1; 2.8 µM with REH; 0.89 µM in the data set on Ramos; 1.9 µM in [1]; 2.9 µM in the data set with NCI-H460. Also, the 50% growth inhibitory concentration (GI50) with A-431 amounted to 1.2 µM; in the data set on ACHN, 2.7 µM; in the data set with MOLT-4, 4 µM; with HL-60, 1.6 µM. Moreover, the Activity result is “Non-Toxic” in the data set on Mus musculus; 104% in the data set filed under Homo sapiens [2]; 102% in the data set listed under Homo sapiens [3]; 91% in the data set filed under Homo sapiens [4]; 68% in the data set filed under Homo sapiens [5]; 75% in the data set listed under Homo sapiens [6]. In addition, the Activity in the data set listed under Homo sapiens [7] amounted to 92%; in the data set listed under Homo sapiens [8] it was 95%; in the data set filed under Homo sapiens [9] it was 72%; in the data set listed under Homo sapiens [10] it was 65%; in the data set filed under Homo sapiens [11], 61%.
